From patent publication US20200369728A1, “PEPTIDOMIMETIC MACROCYCLES AND USES THEREOF” (Aileron Therapeutics, Inc., priority 2015, published 2020) come the findings set out here.

Assay [1] deals with SJSA-1 cells. In words: Cell lysis by peptidomimetic macrocycles (LDH release). The settings on record: SJSA-1, 1 h. The assay is classed as cell-based. Put shortly:
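Membrane lysis measured as supernatant LDH after a 1 h, 37 °C exposure of SJSA-1 cells, held in RPMI with 1% FBS, to macrocycles at final 6.25-50 μM with 0.5% DMSO. Lytic references were 10 μM melittin and 1% Triton X-100; DMSO alone served as non-lytic control.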

Assay [2] has as its system RKO. In words: Cell viability assay (MTT), RKO. The settings on record: read-out: RKO EC50 (72 h).
The subject of assay [3] is Caspase 3. Put plainly: Caspase 3 detection assay in SJSA1 cells. The settings on record: SJSA1, 48 h, Caspase 3 activation over DMSO-treated cells. The assay is classed as cell-based.

In general, EC50 refers to the concentration that produces a half-maximal response. Take `CC(=O)N[C@@H](CC(C)C)C(=O)N[C@H](C(=O)N[C@@H](Cc1ccc(F)c(F)c1)C(=O)N[C@]1(C)CCCCCCC=CCCC[C@@](C)(C(=O)N[C@@H](CO)C(=O)N[C@@H](C)C(=O)N[C@@H](C)C(N)=O)NC(=O)[C@H](CC(C)C)NC(=O)[C@H](CCC(N)=O)NC(=O)[C@H](C)NC(=O)[C@H](Cc2c[nH]c3ccccc23)NC(=O)[C@H](Cc2ccc(O)cc2)NC(=O)[C@H](CCC(=O)O)NC1=O)[C@@H](C)O` (single isomer, unassigned) [compound 158]: in assay [1], the “6.25 μM % Lysed cells (1 h LDH)” value was found to be 0% and the “25 μM % Lysed cells (1 h LDH)” value was −2%. The EC50 in assay [2] was greater than 30 µM. In assay [3], the “caspase 0.3 μM” value was 1, the “caspase 3 μM” value was 1.67, the “caspase 10 μM” value is on record as 5 and the “caspase 30 μM” value is listed as 16.33.

For the compound `CC[C@H](C)[C@H](NC(=O)[C@H](C)NC(=O)[C@H](C)NC(=O)[C@]1(C)CCCC=CCCCCCC[C@@](C)(NC(=O)[C@H](Cc2ccccc2)NC(=O)[C@@H](NC(=O)[C@H](CCC(=O)O)NC(C)=O)[C@@H](C)O)C(=O)N[C@@H](CCC(=O)O)C(=O)N[C@@H](Cc2c[nH]cn2)C(=O)N[C@@H](Cc2c[nH]c3ccccc23)C(=O)N[C@@H](C)C(=O)N[C@@H](CCC(N)=O)C(=O)N[C@@H](CC(C)C)C(=O)N1)C(=O)N[C@H](C)C(N)=O` (single isomer, unassigned) [compound 175], in assay [1], the “6.25 μM % Lysed cells (1 h LDH)” value was determined as 3%, the “25 μM % Lysed cells (1 h LDH)” value is given as 1% and the “50 μM % Lysed cells (1 h LDH)” value is listed as 0%. In assay [2], the EC50 is greater than 30 µM. Besides, in assay [3], the “caspase 0.3 μM” value is 1, the “caspase 3 μM” value is 5, the “caspase 10 μM” value came to 12 and the “caspase 30 μM” value turned out to be 21.

On to `CC(=O)N[C@@H](CC(C)C)C(=O)N[C@H](C(=O)N[C@@H](Cc1ccccc1)C(=O)N[C@]1(C)CCCCCCC=CCCC[C@@](C)(C(=O)N[C@@H](C)C(=O)N[C@@H](C)C(=O)N[C@@H](Cc2ccccc2)C(=O)N[C@H](C)C(N)=O)NC(=O)[C@H](CC(C)C)NC(=O)[C@H](CCC(N)=O)NC(=O)[C@H](C)NC(=O)[C@H](Cc2c[nH]c3ccccc23)NC(=O)[C@H](Cc2ccc(O)cc2)NC(=O)[C@H](CCC(=O)O)NC1=O)[C@@H](C)O` (single isomer, unassigned) [compound 219], for which, in assay [1], the “6.25 μM % Lysed cells (1 h LDH)” value stood at 0%, the “25 μM % Lysed cells (1 h LDH)” value is reported as −1% and the “50 μM % Lysed cells (1 h LDH)” value is on record as 2%. Also, the EC50 in assay [2] fell in the range of 5 to 15 µM. Besides, in assay [3], the “caspase 0.3 μM” value is listed as 1, the “caspase 3 μM” value is given as 5, the “caspase 10 μM” value was 17 and the “caspase 30 μM” value is given as 34.

As to `CC(=O)N[C@@H](CC(C)C)C(=O)N[C@H](C(=O)N[C@@H](Cc1ccccc1)C(=O)N[C@]1(C)CCCCCCC=CCCC[C@@](C)(C(=O)N[C@@H](C)C(=O)N[C@@H](C)C(=O)N[C@@H](C)C(=O)N[C@@H](C)C(=O)N[C@@H](C)C(=O)N[C@@H](C)C(=O)N[C@H](C)C(N)=O)NC(=O)[C@H](CC(C)C)NC(=O)[C@H](CCC(N)=O)NC(=O)[C@H](C)NC(=O)[C@H](Cc2c[nH]c3ccccc23)NC(=O)[C@H](Cc2ccc(O)cc2)NC(=O)[C@H](C)NC1=O)[C@@H](C)O` (single isomer, unassigned) [compound 316], in assay [1], the “6.25 μM % Lysed cells (1 h LDH)” value came to 0%, the “25 μM % Lysed cells (1 h LDH)” value is recorded as 0% and the “50 μM % Lysed cells (1 h LDH)” value came to 1%. Moreover, the EC50 in assay [2] is less than 5 µM. In addition, in assay [3], the “caspase 0.3 μM” value amounted to 6.5, the “caspase 1 μM” value is recorded as 10.5, the “caspase 3 μM” value is 21 and the “caspase 10 μM” value was 32. In addition, the “caspase 30 μM” value in assay [3] is 32.5.

Consider `CC(=O)N[C@@H](CC(C)C)C(=O)N[C@H](C(=O)N[C@@H](Cc1ccccc1)C(=O)N[C@]1(C)CCCCCCC=CCCC[C@@](C)(C(=O)N[C@@H](C)C(=O)N[C@@H](C)C(=O)N[C@@H](C)C(=O)N[C@@H](C)C(=O)N[C@@H](C)C(=O)N[C@H](C)C(N)=O)NC(=O)[C@H](CC(C)C)NC(=O)[C@H](CCC(N)=O)NC(=O)[C@H](C)NC(=O)[C@H](Cc2c[nH]c3cc(Cl)ccc23)NC(=O)[C@H](Cc2ccc(O)cc2)NC(=O)[C@H](C)NC1=O)[C@@H](C)O` (single isomer, unassigned) [compound 338], for which, in assay [1], the “6.25 μM % Lysed cells (1 h LDH)” value turned out to be 0%, the “25 μM % Lysed cells (1 h LDH)” value stood at 0% and the “50 μM % Lysed cells (1 h LDH)” value was determined as 1%. Besides, in assay [2], the EC50 was less than 5 µM. Besides, in assay [3], the “caspase 0.3 μM” value is given as 1, the “caspase 1 μM” value was determined as 5, the “caspase 3 μM” value came to 23 and the “caspase 10 μM” value turned out to be 20. Moreover, the “caspase 30 μM” value in assay [3] worked out at 29.

Turning to `CC(=O)N[C@@H](CCC(=O)O)C(=O)N[C@H](C(=O)N[C@@H](Cc1ccccc1)C(=O)N[C@]1(C)CCCCCCC=CCCC[C@@](C)(C(=O)N[C@@H](C)C(=O)N[C@@H](C)C(=O)N[C@@H](C)C(=O)N[C@@H](C)C(=O)N[C@@H](C)C(=O)N[C@H](C)C(N)=O)NC(=O)[C@H](CC(C)C)NC(=O)[C@H](CCC(N)=O)NC(=O)[C@H](C)NC(=O)[C@H](Cc2c[nH]c3ccccc23)NC(=O)[C@H](Cc2ccc(O)cc2)NC(=O)[C@H](CCC(=O)O)NC1=O)[C@@H](C)O` (single isomer, unassigned) [compound 341], in assay [1], the “6.25 μM % Lysed cells (1 h LDH)” value was determined as 0%, the “25 μM % Lysed cells (1 h LDH)” value is recorded as 0% and the “50 μM % Lysed cells (1 h LDH)” value is recorded as 0%. For the same compound, in assay [2], the EC50 was 15 to 30 µM. In addition, in assay [3], the “caspase 0.3 μM” value worked out at 3, the “caspase 1 μM” value came out at 8, the “caspase 3 μM” value was found to be 11 and the “caspase 10 μM” value was found to be 14. In addition, the “caspase 30 μM” value in assay [3] worked out at 21.

In the case of `CC(=O)N[C@@H](CC(C)C)C(=O)N[C@H](C(=O)N[C@@H](Cc1ccccc1)C(=O)N[C@]1(C)CCCCCCC=CCCC[C@@](C)(C(=O)N[C@@H](CO)C(=O)N[C@@H](C)C(=O)N[C@@H](C)C(=O)N[C@H](C)C(N)=O)NC(=O)[C@H](CC2CCC2)NC(=O)[C@H](CCC(N)=O)NC(=O)[C@H](C)NC(=O)[C@H](Cc2c[nH]c3ccccc23)NC(=O)[C@H](Cc2ccc(O)cc2)NC(=O)[C@H](CCC(=O)O)NC1=O)[C@@H](C)O` (single isomer, unassigned) [compound 353], in assay [1], the “6.25 μM % Lysed cells (1 h LDH)” value was 0%, the “25 μM % Lysed cells (1 h LDH)” value came out at 0% and the “50 μM % Lysed cells (1 h LDH)” value is recorded as 0%. Also, in assay [2], the EC50 lay in the range of 15 to 30 µM. Further, in assay [3], the “caspase 0.3 μM” value was determined as 1, the “caspase 1 μM” value is 2, the “caspase 3 μM” value is recorded as 5 and the “caspase 10 μM” value amounted to 7. In assay [3], the “caspase 30 μM” value was found to be 30.

As to `CC(=O)N[C@@H](C)C(=O)N[C@@H](CC(C)C)C(=O)N[C@H](C(=O)N[C@@H](Cc1ccccc1)C(=O)N[C@]1(C)CCCCCCC=CCCC[C@@](C)(C(=O)N[C@@H](CO)C(=O)N[C@@H](C)C(=O)N[C@@H](C)C(=O)N[C@H](C)C(N)=O)NC(=O)[C@H](CC2CCC2)NC(=O)[C@H](CCC(N)=O)NC(=O)[C@H](C)NC(=O)[C@H](Cc2c[nH]c3ccccc23)NC(=O)[C@H](Cc2ccc(O)cc2)NC(=O)[C@H](CCC(=O)O)NC1=O)[C@@H](C)O` (single isomer, unassigned) [compound 355], in assay [1], the “6.25 μM % Lysed cells (1 h LDH)” value was found to be 0%, the “25 μM % Lysed cells (1 h LDH)” value is reported as 0% and the “50 μM % Lysed cells (1 h LDH)” value was 0%. In addition, in assay [2], the EC50 is 15 to 30 µM. Besides, in assay [3], the “caspase 0.3 μM” value is recorded as 1, the “caspase 1 μM” value is reported as 4, the “caspase 3 μM” value was 11 and the “caspase 10 μM” value is on record as 13. Also, in assay [3], the “caspase 30 μM” value is reported as 30.

For the compound `CC(=O)N[C@@H](C)C(=O)N[C@@H](CC(C)C)C(=O)N[C@H](C(=O)N[C@@H](Cc1ccccc1)C(=O)N[C@]1(C)CCCCCCC=CCCC[C@@](C)(C(=O)N[C@@H](CO)C(=O)N[C@@H](C)C(=O)N[C@@H](C)C(=O)N[C@@H](C)C(=O)N[C@H](C)C(N)=O)NC(=O)[C@H](CC2CCC2)NC(=O)[C@H](CCC(N)=O)NC(=O)[C@H](C)NC(=O)[C@H](Cc2c[nH]c3ccccc23)NC(=O)[C@H](Cc2ccc(O)cc2)NC(=O)[C@H](CCC(=O)O)NC1=O)[C@@H](C)O` (single isomer, unassigned) [compound 357], in assay [1], the “6.25 μM % Lysed cells (1 h LDH)” value was 0%, the “25 μM % Lysed cells (1 h LDH)” value is 0% and the “50 μM % Lysed cells (1 h LDH)” value is reported as 0%. Moreover, in assay [2], the EC50 is less than 5 µM. For the same compound, in assay [3], the “caspase 0.3 μM” value was 2, the “caspase 1 μM” value is 7, the “caspase 3 μM” value amounted to 11 and the “caspase 10 μM” value amounted to 15. The “caspase 30 μM” value in assay [3] is 23.

On to `CC(=O)N[C@@H](C)C(=O)N[C@@H](C)C(=O)N[C@@H](CC(C)C)C(=O)N[C@H](C(=O)N[C@@H](Cc1ccccc1)C(=O)N[C@]1(C)CCCCCCC=CCCC[C@@](C)(C(=O)N[C@@H](CO)C(=O)N[C@@H](C)C(=O)N[C@@H](C)C(=O)N[C@@H](C)C(=O)N[C@H](C)C(N)=O)NC(=O)[C@H](CC2CCC2)NC(=O)[C@H](CCC(N)=O)NC(=O)[C@H](C)NC(=O)[C@H](Cc2c[nH]c3ccccc23)NC(=O)[C@H](Cc2ccc(O)cc2)NC(=O)[C@H](CCC(=O)O)NC1=O)[C@@H](C)O` (single isomer, unassigned) [compound 359], for which, in assay [1], the “6.25 μM % Lysed cells (1 h LDH)” value is listed as 0%, the “25 μM % Lysed cells (1 h LDH)” value worked out at 0% and the “50 μM % Lysed cells (1 h LDH)” value was 0%. For the same compound, the EC50 in assay [2] lay within 15 to 30 µM. For the same compound, in assay [3], the “caspase 0.3 μM” value worked out at 3, the “caspase 1 μM” value is on record as 9, the “caspase 3 μM” value was 11 and the “caspase 10 μM” value turned out to be 13. Also, the “caspase 30 μM” value in assay [3] is reported as 23.
